Measurements: PubChem BioAssay AID1259407 (Chemical Carcinogenesis Research Information System (CCRIS), 2018)
Active and inactive are the calls of the source. The rule behind the calls is not given here.

Tested on: CCRIS mutagenicity, Ames/micronucleus/aberration tests
Test: CCRIS mutagenicity studies
[1] = Test System: AMES SALMONELLA TYPHIMURIUM, Strain/Indicator: TA98, Metabolic Activation: NONE, Method: PREINCUBATION
[2] = Test System: AMES SALMONELLA TYPHIMURIUM, Strain/Indicator: TA98, Metabolic Activation: NONE, Method: STANDARD PLATE
[3] = Test System: AMES SALMONELLA TYPHIMURIUM, Strain/Indicator: TA100, Metabolic Activation: NONE, Method: PREINCUBATION
[4] = Test System: AMES SALMONELLA TYPHIMURIUM, Strain/Indicator: TA100, Metabolic Activation: NONE, Method: STANDARD PLATE
[5] = Test System: AMES SALMONELLA TYPHIMURIUM, Strain/Indicator: TA1535, Metabolic Activation: NONE, Method: PREINCUBATION
[6] = Test System: AMES SALMONELLA TYPHIMURIUM, Strain/Indicator: TA1537, Metabolic Activation: NONE, Method: PREINCUBATION
[7] = Test System: AMES SALMONELLA TYPHIMURIUM, Strain/Indicator: TA100, Metabolic Activation: RAT, LIVER, S-9, AROCLOR 1254, Method: STANDARD PLATE

## OCc1ccco1
Test System: AMES SALMONELLA TYPHIMURIUM, Strain/Indicator: TA98, Metabolic Activation: HAMSTER LIVER S-9, AROCLOR 1254 (10%), Method: PREINCUBATION
  mutagenic call: inactive; negative
[1]
  mutagenic call: inactive; negative
[2]
  mutagenic call: inactive; negative
Test System: AMES SALMONELLA TYPHIMURIUM, Strain/Indicator: TA98, Metabolic Activation: RAT LIVER S-9, AROCLOR 1254 (10%), Method: PREINCUBATION
  mutagenic call: inactive; negative
Test System: AMES SALMONELLA TYPHIMURIUM, Strain/Indicator: TA98, Metabolic Activation: RAT, LIVER, S-9, AROCLOR 1254, Method: PREINCUBATION
  mutagenic call: inactive; negative
Test System: AMES SALMONELLA TYPHIMURIUM, Strain/Indicator: TA98, Metabolic Activation: S-9, Method: STANDARD PLATE
  mutagenic call: inactive; negative
Test System: AMES SALMONELLA TYPHIMURIUM, Strain/Indicator: TA100, Metabolic Activation: HAMSTER LIVER S-9, AROCLOR 1254 (10%), Method: PREINCUBATION
  mutagenic call: inactive; negative
[3]
  mutagenic call: inactive; negative
[4]
  mutagenic call: inactive; negative
Test System: AMES SALMONELLA TYPHIMURIUM, Strain/Indicator: TA100, Metabolic Activation: RAT LIVER S-9, AROCLOR 1254 (10%), Method: PREINCUBATION
  mutagenic call: inactive; negative
Test System: AMES SALMONELLA TYPHIMURIUM, Strain/Indicator: TA100, Metabolic Activation: RAT, LIVER, S-9, AROCLOR 1254, Method: PREINCUBATION
  mutagenic call: inactive; negative
Test System: AMES SALMONELLA TYPHIMURIUM, Strain/Indicator: TA100, Metabolic Activation: S-9, Method: STANDARD PLATE
  mutagenic call: inactive; negative
Test System: AMES SALMONELLA TYPHIMURIUM, Strain/Indicator: TA102, Metabolic Activation: NONE, Method: PREINCUBATION
  mutagenic call: inactive; negative
Test System: AMES SALMONELLA TYPHIMURIUM, Strain/Indicator: TA102, Metabolic Activation: RAT, LIVER, S-9, AROCLOR 1254, Method: PREINCUBATION
  mutagenic call: inactive; negative
Test System: AMES SALMONELLA TYPHIMURIUM, Strain/Indicator: TA1535, Metabolic Activation: HAMSTER LIVER S-9, AROCLOR 1254 (10%), Method: PREINCUBATION
  mutagenic call: inactive; negative
[5]
  mutagenic call: inactive; negative
Test System: AMES SALMONELLA TYPHIMURIUM, Strain/Indicator: TA1535, Metabolic Activation: RAT LIVER S-9, AROCLOR 1254 (10%), Method: PREINCUBATION
  mutagenic call: inactive; negative
Test System: AMES SALMONELLA TYPHIMURIUM, Strain/Indicator: TA1537, Metabolic Activation: HAMSTER LIVER S-9, AROCLOR 1254 (10%), Method: PREINCUBATION
  mutagenic call: inactive; negative
[6]
  mutagenic call: inactive; negative
Test System: AMES SALMONELLA TYPHIMURIUM, Strain/Indicator: TA1537, Metabolic Activation: RAT LIVER S-9, AROCLOR 1254 (10%), Method: PREINCUBATION
  mutagenic call: inactive; negative

## Cc1ncc([N+](=O)[O-])n1CC(O)CCl (centres undefined)
End Point: IN VITRO CHROMOSOMAL ABERRATIONS, Test System: HUMAN LYMPHOCYTES, Metabolic Activation: NONE
  mutagenic call: active; positive (structural changes)

## Nc1ccc2c(c1)Cc1cc(N)ccc1-2
[2]
  mutagenic call: active; positive
Test System: AMES SALMONELLA TYPHIMURIUM, Strain/Indicator: TA98, Metabolic Activation: RAT, LIVER, S-9, AROCLOR 1254, Method: STANDARD PLATE
  mutagenic call: active; positive
[4]
  mutagenic call: inactive; negative
[7]
  mutagenic call: active; positive
Test System: AMES SALMONELLA TYPHIMURIUM, Strain/Indicator: TA1538, Metabolic Activation: NONE, Method: STANDARD PLATE
  mutagenic call: active; positive
Test System: AMES SALMONELLA TYPHIMURIUM, Strain/Indicator: TA1538, Metabolic Activation: RAT, LIVER, S-9, AROCLOR 1254, Method: STANDARD PLATE
  mutagenic call: active; positive

## CC1c2ccccc2-c2ccc(F)cc21 (centres undefined)
[7]
  mutagenic call: active; positive

## CC(Br)(CBr)CBr
Test System: AMES SALMONELLA TYPHIMURIUM, Strain/Indicator: TA98, Metabolic Activation: NONE, Method: FLASK ASSAY
  mutagenic call: inactive; negative
Test System: AMES SALMONELLA TYPHIMURIUM, Strain/Indicator: TA98, Metabolic Activation: RAT, LIVER, S-9, AROCLOR 1254, Method: FLASK ASSAY
  mutagenic call: inactive; negative
Test System: AMES SALMONELLA TYPHIMURIUM, Strain/Indicator: TA100, Metabolic Activation: NONE, Method: FLASK ASSAY
  mutagenic call: inactive; negative
Test System: AMES SALMONELLA TYPHIMURIUM, Strain/Indicator: TA100, Metabolic Activation: RAT, LIVER, S-9, AROCLOR 1254, Method: FLASK ASSAY
  mutagenic call: inactive; negative
Test System: AMES SALMONELLA TYPHIMURIUM, Strain/Indicator: TA1535, Metabolic Activation: NONE, Method: FLASK ASSAY
  mutagenic call: inactive; negative
Test System: AMES SALMONELLA TYPHIMURIUM, Strain/Indicator: TA1535, Metabolic Activation: RAT, LIVER, S-9, AROCLOR 1254, Method: FLASK ASSAY
  mutagenic call: inactive; negative
Test System: AMES SALMONELLA TYPHIMURIUM, Strain/Indicator: TA1537, Metabolic Activation: NONE, Method: FLASK ASSAY
  mutagenic call: inactive; negative
Test System: AMES SALMONELLA TYPHIMURIUM, Strain/Indicator: TA1537, Metabolic Activation: RAT, LIVER, S-9, AROCLOR 1254, Method: FLASK ASSAY
  mutagenic call: inactive; negative
Test System: AMES SALMONELLA TYPHIMURIUM, Strain/Indicator: TA1538, Metabolic Activation: NONE, Method: FLASK ASSAY
  mutagenic call: inactive; negative
Test System: AMES SALMONELLA TYPHIMURIUM, Strain/Indicator: TA1538, Metabolic Activation: RAT, LIVER, S-9, AROCLOR 1254, Method: FLASK ASSAY
  mutagenic call: inactive; negative
Test System: MOUSE LYMPHOMA, Strain/Indicator: L5178Y (TK+/TK-), Metabolic Activation: NONE, Method: SUSPENSION/PLATE
  mutagenic call: active; positive
Test System: MOUSE LYMPHOMA, Strain/Indicator: L5178Y (TK+/TK-), Metabolic Activation: RAT, LIVER, S-9, AROCLOR 1254, Method: SUSPENSION/PLATE
  mutagenic call: active; positive

## O.O.O.O.O.O.O=[N+]([O-])O.O=[N+]([O-])O.[Zn]
[1]
  mutagenic call: inactive; negative
Test System: AMES SALMONELLA TYPHIMURIUM, Strain/Indicator: TA98, Metabolic Activation: RAT LIVER S-9, PHENOBARBITAL AND BETA-NAPHTHOFLAVONE, Method: PREINCUBATION
  mutagenic call: inactive; negative
[3]
  mutagenic call: inactive; negative
Test System: AMES SALMONELLA TYPHIMURIUM, Strain/Indicator: TA100, Metabolic Activation: RAT LIVER S-9, PHENOBARBITAL AND BETA-NAPHTHOFLAVONE, Method: PREINCUBATION
  mutagenic call: inactive; negative
[5]
  mutagenic call: inactive; negative
Test System: AMES SALMONELLA TYPHIMURIUM, Strain/Indicator: TA1535, Metabolic Activation: RAT LIVER S-9, PHENOBARBITAL AND BETA-NAPHTHOFLAVONE, Method: PREINCUBATION
  mutagenic call: inactive; negative
[6]
  mutagenic call: inactive; negative
Test System: AMES SALMONELLA TYPHIMURIUM, Strain/Indicator: TA1537, Metabolic Activation: RAT LIVER S-9, PHENOBARBITAL AND BETA-NAPHTHOFLAVONE, Method: PREINCUBATION
  mutagenic call: inactive; negative
Test System: AMES SALMONELLA TYPHIMURIUM, Strain/Indicator: TA1538, Metabolic Activation: NONE, Method: PREINCUBATION
  mutagenic call: inactive; negative
Test System: AMES SALMONELLA TYPHIMURIUM, Strain/Indicator: TA1538, Metabolic Activation: RAT LIVER S-9, PHENOBARBITAL AND BETA-NAPHTHOFLAVONE, Method: PREINCUBATION
  mutagenic call: inactive; negative
Test System: E.COLI, Strain/Indicator: WP2UVRA, Metabolic Activation: NONE, Method: PREINCUBATION
  mutagenic call: inactive; negative
Test System: E.COLI, Strain/Indicator: WP2UVRA, Metabolic Activation: RAT LIVER S-9, PHENOBARBITAL AND BETA-NAPHTHOFLAVONE, Method: PREINCUBATION
  mutagenic call: inactive; negative

## COc1cc(NS(C)(=O)=O)ccc1Nc1c2ccccc2nc2ccc(N=[N+]=[N-])cc12
Test System: AMES SALMONELLA TYPHIMURIUM, Strain/Indicator: TA1537, Metabolic Activation: NONE, Method: STANDARD PLATE
  mutagenic call: active; positive

## Nc1[nH]c(=O)nc2c1ncn2[C@@H]1O[C@H](CO)[C@@H](O)[C@H]1O
[3]
  mutagenic call: inactive; negative
